Measured values published in patent US9850247B2 (Almac Discovery Limited, priority 2013, dated 2017).

Key:
[1] = test system: phospho-cdc2 (Tyr15) in HT-29 cells; assay: Effect on Cdc2 phosphorylation at Tyr15, Cell-Based ELISA Base Kit (Method 3); details: Homo sapiens, HT-29, 8 h, eight hours incubation, normalized to total cdc2, read-out: HT29 pCDC2 method 3
In short: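 HT-29 cells were treated with compounds for 8 h at 37 °C, then fixed in 4% formaldehyde. Phospho-cdc2 (Tyr15) and total cdc2 were read by dual-fluorogenic cell-based ELISA at 600/450 nm. Phospho signal was normalized to total cdc2 and expressed as % of DMSO control, and EC50 came from non-linear regression.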

[2] = CLint estimates using human liver microsomes (Method 4); type: in vitro ADME; details: pH 7.4, 1 μM compound, read-out: Mics - CLint (HLM CLint)
In short: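 Compound at 1 μM (0.1% DMSO) incubated with human liver microsomes (0.5 mg protein/mL) in 0.1 M phosphate pH 7.4 at 37 °C, started with 1 mM NADPH. Samples taken 2–50 min, quenched in methanol, measured by LC/MS/MS (MRM). Half-life and CLint derived from the slope of ln peak area versus time.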

Wee-1 kinase = molecular target: T1, Wee-1 kinase (Homo sapiens, UniProt P30291); assay: Measurement of Wee-1 kinase activity (ADP-Glo luminescent kit); type: biochemical
T1 construct: purchased Invitrogen PV3817
T1 sequence (P30291 whole entry): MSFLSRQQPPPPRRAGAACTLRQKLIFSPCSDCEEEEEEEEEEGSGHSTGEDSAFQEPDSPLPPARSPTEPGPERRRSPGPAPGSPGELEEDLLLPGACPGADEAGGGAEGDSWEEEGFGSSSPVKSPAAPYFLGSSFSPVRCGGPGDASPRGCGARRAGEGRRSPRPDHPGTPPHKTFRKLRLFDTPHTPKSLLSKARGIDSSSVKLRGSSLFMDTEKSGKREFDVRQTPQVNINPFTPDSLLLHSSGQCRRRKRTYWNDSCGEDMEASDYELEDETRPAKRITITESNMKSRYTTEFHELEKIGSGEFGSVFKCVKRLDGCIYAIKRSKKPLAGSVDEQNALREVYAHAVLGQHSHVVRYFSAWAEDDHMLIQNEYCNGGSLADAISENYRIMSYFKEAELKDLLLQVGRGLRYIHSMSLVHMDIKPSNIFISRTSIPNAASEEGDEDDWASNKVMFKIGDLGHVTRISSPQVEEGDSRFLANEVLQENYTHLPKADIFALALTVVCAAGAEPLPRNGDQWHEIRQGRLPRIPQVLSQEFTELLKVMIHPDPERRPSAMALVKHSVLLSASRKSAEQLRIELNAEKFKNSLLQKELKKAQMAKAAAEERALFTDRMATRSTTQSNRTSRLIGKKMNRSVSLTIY
In short: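 Activated Wee-1 was pre-incubated 30 min at RT with compound in 40 mM Tris-HCl, 20 mM MgCl2, 0.1 mg/mL BSA and 2 mM DTT. The reaction was started with an aliquot of 2.0 μg/mL poly(Lys,Tyr 4:1) plus 30 μM ATP and run 1 h at RT. ADP-Glo luminescence gave IC50 by non-linear fit.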

| microsomal CLint at 1 μM [2] [µL/min/mg] | IC50 (Wee-1 kinase) [nM] | SMILES | EC50 [1] [nM] |
| --- | --- | --- | --- |
| 15 to 50 | ≤ 10 | CN(C)Cc1cc(Nc2ncc3c(n2)N(C)CN(c2c(Cl)cccc2Cl)C3=O)ccc1N1CCOCC1 [Example 154, 3-(2,6-dichlorophenyl)-7-((3-((dimethylamino)methyl)-4-morpholinophenyl)amino)-1-methyl-2,3-dihydropyrimido[4,5-d]pyrimidin-4(1H)-one] | 100 to 1000 |
| ≤ 15 | 10 to 100 | COC[C@@H]1CN(c2ccc(Nc3ncc4c(n3)N(C)CN(c3c(Cl)cccc3Cl)C4=O)cc2)CCN1 [Example 61, (S)-3-(2,6-dichlorophenyl)-7-((4-(3-(methoxymethyl)piperazin-1-yl)phenyl)amino)-1-methyl-2,3-dihydropyrimido[4,5-d]pyrimidin-4(1H)-one] | 100 to 1000 |
| ≤ 15 | ≤ 10 | CNCc1cccc(N2CN(c3c(Cl)cccc3Cl)C(=O)c3cnc(Nc4ccc(N5CCOCC5)cc4)nc32)c1 [Example 168, 3-(2,6-dichlorophenyl)-1-(3-((methylamino)methyl)phenyl)-7-((4-morpholinophenyl)amino)-2,3-dihydropyrimido[4,5-d]pyrimidin-4(1H)-one] | 100 to 1000 |
| ≤ 15 | ≤ 10 | CN1CCC(c2ccc(Nc3ncc4c(n3)N(C)CN(c3c(Cl)cccc3Cl)C4=O)cc2CO)CC1 [Example 165, 3-(2,6-dichlorophenyl)-7-((3-(hydroxymethyl)-4-(1-methylpiperidin-4-yl)phenyl)amino)-1-methyl-2,3-dihydropyrimido[4,5-d]pyrimidin-4(1H)-one] | 100 to 1000 |
| 15 to 50 | ≤ 10 | C[C@@H]1CN(c2ccc(Nc3ncc4c(n3)N(C)CN(c3c(Cl)cccc3Cl)C4=O)cc2)C[C@H](C)N1 [Example 83, 3-(2,6-dichlorophenyl)-7-((4-((3R,5S)-3,5-dimethylpiperazin-1-yl)phenyl)amino)-1-methyl-2,3-dihydropyrimido[4,5-d]pyrimidin-4(1H)-one] | 100 to 1000 |
| ≤ 15 | ≤ 10 | CNCc1cc(Nc2ncc3c(n2)N(C)CN(c2c(Cl)cccc2Cl)C3=O)ccc1N1CCS(=O)(=O)CC1 [Example 146, 3-(2,6-dichlorophenyl)-7-((4-(1,1-dioxidothiomorpholino)-3-((methylamino)methyl)phenyl)amino)-1-methyl-2,3-dihydropyrimido[4,5-d]pyrimidin-4(1H)-one] | ≥ 1000 |
| ≤ 15 | 10 to 100 | CCN1CN(c2c(Cl)cccc2Cl)C(=O)c2cnc(Nc3ccc(N4CCNCC4)cc3)nc21 [Example 169, 3-(2,6-dichlorophenyl)-1-ethyl-7-((4-(piperazin-1-yl)phenyl)amino)-2,3-dihydropyrimido[4,5-d]pyrimidin-4(1H)-one] | ≥ 1000 |

The remaining lines, values behind:

| SMILES | microsomal CLint at 1 μM [2] [µL/min/mg] | IC50 (Wee-1 kinase) [nM] | EC50 [1] [nM] |
| --- | --- | --- | --- |
| C[C@@H]1CN(c2ccc(Nc3ncc4c(n3)N(C)CN(c3c(Cl)cccc3Cl)C4=O)cc2C(C)(C)O)CCN1 [Example 140, (R)-3-(2,6-dichlorophenyl)-7-((3-(2-hydroxypropan-2-yl)-4-(3-methylpiperazin-1-yl)phenyl)amino)-1-methyl-2,3dihydropyrimido [4,5-d]pyrimidin-4(1H)-one] | 15 to 50 | 10 to 100 | ≥ 1000 |
| COC[C@H]1CN(c2ccc(Nc3ncc4c(n3)N(C)CN(c3c(Cl)cccc3Cl)C4=O)cc2C(O)C(F)F)CCN1 (single isomer, unassigned) [Example 162] | 15 to 50 | ≤ 10 | 100 to 1000 |
| Cc1cc(Nc2ncc3c(n2)N(C)CN(c2c(Cl)cccc2Cl)C3=O)ccc1N1C[C@@H]2C[C@H]1CN2C [Example 77, 3-(2,6-dichlorophenyl)-1-methyl-7-((3-methyl-4-((1S,4S)-5-methyl-2,5-diazabicyclo[2.2.1]heptan-2-yl)phenyl)amino)-2,3-dihydropyrimido[4,5-d]pyrimidin-4(1H)-one] | 15 to 50 | ≤ 10 | 100 to 1000 |
| COC[C@H]1CN(c2ccc(Nc3ncc4c(n3)N(C)CN(c3c(Cl)cccc3Cl)C4=O)cc2CO)CCN1 [Example 135, (R)-3-(2,6-dichlorophenyl)-7-((3-(hydroxymethyl)-4-(3-(methoxymethyl)piperazin-1-yl)phenyl)amino)-1-methyl-2,3-dihydropyrimido[4,5-d]pyrimidin-4(1H)-one] | ≤ 15 | ≤ 10 | 100 to 1000 |
| CCN1CN(c2c(Cl)cccc2Cl)C(=O)c2cnc(Nc3ccc(N4C[C@@H](C)N[C@@H](C)C4)c(CO)c3)nc21 [Example 170, 3-(2,6-dichlorophenyl)-7-((4-((3S,5R)-3,5-dimethylpiperazin-1-yl)-3-(hydroxymethyl)phenyl)amino)-1-ethyl-2,3-dihydropyrimido[4,5-d]pyrimidin-4(1H)-one] | 15 to 50 | ≤ 10 | 100 to 1000 |
| C[C@@H]1CN(c2ccc(Nc3ncc4c(n3)N(C)CN(c3c(Cl)cccc3Cl)C4=O)cc2C(O)C(F)F)CCN1 (stereo partly drawn) [Example 134, 3-(2,6-dichlorophenyl)-7-((3-(2,2-difluoro-1-hydroxyethyl)-4-((R)-3-methylpiperazin-1-yl)phenyl)amino)-1-methyl-2,3-dihydropyrimido[4,5-d]pyrimidin-4(1H)-one] | ≤ 15 | ≤ 10 | 100 to 1000 |
| CN1CCN(c2ccc(Nc3ncc4c(n3)N(C)CN(c3c(Cl)cccc3Cl)C4=O)cc2CO)CC1 [Example 33, 3-(2,6-dichlorophenyl)-7-((3-(hydroxymethyl)-4-(4-methylpiperazin-1-yl)phenyl)amino)-1-methyl-2,3-dihydropyrimido[4,5-d]pyrimidin-4(1H)-one] | 15 to 50 | ≤ 10 | 100 to 1000 |
| CN1CN(c2c(Cl)cccc2Cl)C(=O)c2cnc(Nc3ccc(C4CCNCC4)c(CO)c3)nc21 [Example 167, 3-(2,6-dichlorophenyl)-7-((3-(hydroxymethyl)-4-(piperidin-4-yl)phenyl)amino)-1-methyl-2,3-dihydropyrimido[4,5-d]pyrimidin-4(1H)-one] | ≤ 15 | ≤ 10 | ≥ 1000 |
| CN1CN(c2c(Cl)cccc2Cl)C(=O)c2cnc(Nc3ccc(N4CCNCC4)c(CNCC(F)(F)F)c3)nc21 [Example 141, 3-(2,6-dichlorophenyl)-1-methyl-7-((4-(piperazin-1-yl)-3-(((2,2,2-trifluoroethyl)amino)methyl)phenyl)amino)-2,3-dihydropyrimido[4,5-d]pyrimidin-4(1H)-one] | ≤ 15 | ≤ 10 | ≥ 1000 |
| CN1CN(c2c(Cl)cccc2Cl)C(=O)c2cnc(Nc3ccc(N4CC5CCC(C4)N5C)cc3)nc21 [Example 88, 3-(2,6-dichlorophenyl)-1-methyl-7-((4-(8-methyl-3,8-diazabicyclo[3.2.1]octan-3-yl)phenyl)amino)-2,3-dihydropyrimido[4,5-d]pyrimidin-4(1H)-one] | 15 to 50 | ≤ 10 | 100 to 1000 |
| C[C@@H]1CN(c2ccc(Nc3ncc4c(n3)N(C)CN(c3c(Cl)cccc3Cl)C4=O)cc2CO)CCN1C [Example 46, (R)-3-(2,6-dichlorophenyl)-7-((4-(3,4-dimethylpiperazin-1-yl)-3-(hydroxymethyl)phenyl)amino)-1-methyl-2,3-dihydropyrimido[4,5-d]pyrimidin-4(1H)-one] | ≤ 15 | ≤ 10 | 100 to 1000 |
